Assay results: patent US20250163057A1, “DCN-1 MODULATING COMPOUNDS AND METHODS OF USE THEREOF” (Cellarity, Inc., priority 2023, published 2025)
Read-outs that look alike come from different tables or passages of the source.

Columns and labels:
[1] = target: DCN1 protein (Homo sapiens (Human), UniProt Q96GG9); assay: Intact Protein MS Analysis with the RapidFire-TOF System (covalent adduct formation); assay type: binding; conditions: MS Emax; 400 nM DCN1, 3 hours at room temperature
In short: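 Tag-cleaved human DCN1 (400 nM) expressed in E. coli, in 25 mM Tris-HCl, 200 mM NaCl, 1 mM DTT, was incubated with 11 compound concentrations for 3 h at room temperature and quenched with 0.2% formic acid. Intact-protein Q-TOF MS with deconvolution detected the compound adduct mass.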

[2] = target: T1, DCN1 (DCUND1) protein PONY domain (Homo sapiens (Human), UniProt Q96GG9); assay: TR-FRET assay, DCN1 binding with FAM-labeled probe
T1 sequence (Q96GG9 60-248): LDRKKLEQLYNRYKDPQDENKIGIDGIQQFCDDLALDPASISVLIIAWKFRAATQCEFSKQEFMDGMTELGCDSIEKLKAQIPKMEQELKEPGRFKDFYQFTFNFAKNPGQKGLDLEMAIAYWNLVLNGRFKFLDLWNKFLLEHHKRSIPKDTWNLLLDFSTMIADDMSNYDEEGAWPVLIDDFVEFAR
In short: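 Tb-DCN1 PONY domain (E. coli, biotin/streptavidin-Tb); FAM-labelled non-covalent inhibitor probe; TritonX buffer, 200 mM NaCl; 5 nM DCN1 + 20 nM probe or 0.31 nM DCN1 + 900 nM total probe; 0.1% DMSO; TR-FRET read 1, 5, 24 hrs.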

[3] = system: fetal hemoglobin protein; assay: HbF HPLC Cell Culture Assay; assay type: cell-based
Method: A Cell Culture Assay was performed to evaluate the ability of compounds to induce fetal hemoglobin in a cell culture. The amount fetal hemoglobin protein induced was measured by HPLC.
Cell culture began on Day −4 (thaw day). Thaw buffer was prepared by sterile filtering 6 mL of Human Serum Albumin and 144 mL of PBS to make sterile 1% I/PBS. Cells were removed from liquid nitrogen storage and mostly thawed in a 37° C. water bath. Once the ice in the cryovials was melted, cells were transferred quickly into a 50 mL conical tube. Cryovial was rinsed once with thaw buffer and buffer was transferred over to the conical tube as well. Next, doubling volumes of thaw buffer was added to the conical and gently swirled for ˜30 seconds to one minute (for example: 2 mL was added and swirled, then 4 mL, then 8 mL, and so on) until the volume in the conical is 32 mL. Cells and buffer were centrifuged at 300G for 8 minutes, and the supernatant was aspirated. Another 32 mL of thaw buffer was added slowly, swirling the tube. The tube was again centrifuged at 300G for 8 minutes and the supernatant was aspirated. Cells were counted by resuspending in 1 mL of expansion media and counting with AOPI to determine the concentration of cells/mL.
On day 2, Passage & Treatment Day, each cell culture well was counted. Next fresh CD34 Expansion Media was made which contained StemSpan SFEM, CC100 and TPO all from StemCell technologies. Appropriate volume of cells was collected, centrifuged at 300 g and resuspended in fresh media. Cells were plated in treatment format at a density of 200,000 cells/ml, 25,000 cells/well. Finally, they were treated with test compounds as well as positive and negative controls.
On Days 0, 3 & 5 the same process was carried out. First, each cell culture well was counted. Next Phase 1 Erythroid Differentiation Media was freshly made, which contained StemSpan SFEM, 2.5 U/ml EPO, 0.5 mg/ml Holo-TF, 1× Glutamax, 5 μl/ml chemically defined lipid mixture, 10 ng/ml insulin, 50 ng/ml SCF, 10 ng/ml IL-3. Appropriate volume of cells was collected, centrifuged at 300 g and resuspended in fresh media. Cells should now be in fresh wells at a density of 100,000 cells/ml. 60,000 cells, 60,000 cells and 100,000 cells for days 0, 3, 5 respectively. Finally, fresh compound was added to each well at each timepoint (Days 0, 3 & 5).
On Day 7 media and cell culture density changes. Each cell culture well was counted. Next, Phase 2 Erythroid Differentiation Media was freshly made, which contains StemSpan SFEM, 2.5 U/ml EPO, 0.5 mg/ml Holo-TF, 1× Glutamax, 5 μl/ml chemically defined lipid mixture, 10 ng/ml insulin, 50 ng/ml SCF. Appropriate volume of cells was collected, centrifuged at 300 g and resuspended in fresh media. Cells were plated in fresh wells at a density of 500,000 cells/ml, 300,000 cells/well. Finally, fresh compound was added to each well at Day 7 timepoint.
On Day 10 media formulation is once again changed. Each cell culture well was counted. Fresh Phase 3 Erythroid Differentiation Media was made which contains StemSpan SFEM, 2.5 U/ml EPO, 0.5 mg/ml Holo-TF, 1× Glutamax, 5 μl/ml chemically defined lipid mixture, 10 ng/ml insulin. Appropriate volume of cells was collected, centrifuged at 300 g and resuspended in fresh media. Cells were plated in fresh wells at a density of 500,000 cells/ml, 500,000 cells/well. Finally, fresh compound was added to each well at Day 10 timepoint.
On Day 12 the cell density is once again changed. Each cell culture well was counted. Fresh Phase 3 Erythroid Differentiation Media was made. Appropriate volume of cells was collected, centrifuged at 300 g and resuspended in fresh media. Cells were plated in fresh wells at a density of 1,000,000 cells/ml, 1,000,000 cells/well. Finally fresh compound was added to each well.
Day 14 (18th day of experiment) refers to the terminal day of culture. Each cell culture well was counted. Next between 150K and 650K cells were placed in a uniquely labeled 1.5 ml standard tube. […]

[4] = system: Cullin-3 (CUL3) neddylation; assay: AlphaLISA assay for Cullin-3 (CUL3) neddylation in TF 1 cells; assay type: cell-based; conditions: Homo sapiens, TF-1, 3 h, 3 hours treatment
In short: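 TF 1 cells in unsupplemented IMDM treated with compound concentrations for 3 h, then lysed. CUL3 neddylation detected by AlphaLISA (biotinylated anti-NEDD8, anti-CUL3 acceptor beads overnight, streptavidin donor beads 1 h); normalized to vehicle (0%) and 1 μM DI-1548 (100%), IC50 from Hill fits.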

[5] = target: T1, DCN1 (DCUND1) protein PONY domain; assay: Off-rate measurement of reversible covalent molecules (jump dilution TR-FRET with Cy5 probe); assay type: binding
Text: A typical covalent compound is assumed to stay bound to a protein for at least the life of that protein in the cell. In reality, there is a range of how long a covalent compounds remains bound before a reverse reaction takes place. Thus, some covalent bonds can be labeled as reversible as their reverse reaction takes place in a measurable amount of time under physiological conditions. The assay capitalizes on the range of covalent binders by using a high affinity covalent binder as a probe to displace the more reversible binders in an adaptation of the jump dilution method.
In this version of the jump dilution method, the increase in covalent probe binding over time was measured through a TR-FRET reaction between the covalent probe and the biotinylated target protein.
The recombinant form of the DCN1 (DCUND1) protein PONY domain was produced using an E. coli expression system at Viva Biotech (China). The DCN1 protein was biotinylated (EZ sulfo-NHS-LC-biotin; Thermofisher) for labeling with streptavidin terbium (Tb) cryptate in the reaction. This biotinylated protein was used in two forms of the TR-FRET assay as described below.
The off-rate measurement is executed in two steps based on the jump dilution method. […] The greatest dilution allowed within the constraints of the assay was chosen. These factors allow a competitive advantage for the covalent probe to replace the test compound when that compound releases from the target protein. The actual measure is the rate of increased TR-FRET signal as the covalent probe replaces the test compound over time. […] The resulting time dependent curve of the TR-FRET signal is fit to the following equation:
Y=Y0+(Plateau−Y0)*(1−exp(−K*x))
K is the rate constant (1/unit of time). The residence time is defined as the inverse of K, the rate constant. The half-life is calculated as ln(2)/K.

[6] = target: DCN2 (DCUND2) protein PONY domain (Homo sapiens (Human), UniProt Q6PH85); assay: Measurement of Kinact/KI in the DCN2 TR-FRET Assay; assay type: binding; conditions: for Ki / kinact: time-dependent IC50 over 24 hrs
Sequence of DCN2 (DCUND2) protein PONY domain (Q6PH85 60-248): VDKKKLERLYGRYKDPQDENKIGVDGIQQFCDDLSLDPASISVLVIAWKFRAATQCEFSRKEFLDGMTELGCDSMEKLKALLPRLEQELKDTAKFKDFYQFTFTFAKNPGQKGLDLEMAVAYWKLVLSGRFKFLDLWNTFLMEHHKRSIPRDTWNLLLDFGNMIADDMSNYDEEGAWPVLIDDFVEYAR
Method: A TR-FRET Assay was performed to evaluate the ability of the compounds to bind DCN-2.
The time resolved—Forster's resonance energy transfer (TR-FRET) assay was designed following the protocol established in (Scott et al., Nat Chem Biol. 2017 August; 13(8): 850-857). A recombinant form of the DCN2 (DCUND2) protein PONY domain was produced using an E. coli expression system at Viva Biotech China. The DCN2 protein was biotinylated (EZ sulfo-NHS-LC-biotin; Thermofisher) for labeling with 2.5 nM streptavidin terbium (Tb) cryptate in the reaction. The probe was changed to a non-covalent DCN1 inhibitor labeled with carboxyfluorescein (FAM; Zhou et al, Nat Commun. 2017; 8: 1150). Buffer conditions were modified to enhance protein stability by replacing TritonX with 0.05% Tween20 and increasing NaCl to 200 mM. The compounds were screened against 0.31 nM DCN1 and 40 nM FAM-labeled probe in a 40 ul reaction volume. The TR-FRET ratio between Tb-DCN1 and the FAM-labeled probe was measured in a 384-well opti-plate (Perkin Elmer) using a plate reader (BMG) at after treatment with compound (final DMSO concentration of 0.1%). The ratio was normalized to the high (DCN1 and FAM-probe) and low (DCN1 and no probe) controls for a readout of % activity (=100*(x−low)/(high−low)).
The Kinact and KI measurements were taken to allow for continuous reads over 24 hrs. Plates were read every 5 min up to 1 hr, every 15 min up to 5 hr, and every hour up to […]. Kinact and KI were calculated based on the following equations (Krippendorff B F, et al. Mechanism-based inhibition: deriving K(I) and k(inact) directly from time-dependent IC(50) values. J BiomolScreen. 2009; Mons E et al. A Comprehensive Guide for Assessing Covalent Inhibition in Enzymatic Assays Illustrated with Kinetic Simulations. CurrProtoc. 2022) where the KM of the probe against DCN2 is 21.62 nM. The Kinact and KI values could be estimated from the tight curves of the IC50 values over time.

[7] = 24 hr after treatment with compound, read-out: TR FRET IC50 24 hr

Sequence of DCN1 protein (Q96GG9 whole entry): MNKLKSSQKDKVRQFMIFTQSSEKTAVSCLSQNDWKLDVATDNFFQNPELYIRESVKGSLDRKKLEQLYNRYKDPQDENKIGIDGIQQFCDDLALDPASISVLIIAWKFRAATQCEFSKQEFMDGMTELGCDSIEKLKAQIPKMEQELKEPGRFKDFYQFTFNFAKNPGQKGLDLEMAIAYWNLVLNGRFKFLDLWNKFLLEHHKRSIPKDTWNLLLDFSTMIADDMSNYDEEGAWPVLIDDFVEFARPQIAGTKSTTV

Structure (SMILES) | % Adduct Formation [1] | IC50 [2, 7] [nM] | IC50 ([2]; TR FRET IC50 1 hr (nM), 1 hr after treatment with compound) [nM] | EC50 ([3]; 336 h, HbF induction, Day 14 of culture) [nM] | Hemoglobin HPLC Ymax obs (%) ([3]; relative to a control compound) | IC50 [4] [nM] | Category ([5]; binding mode category from off-rate assay) | residence time ([5]; inverse of rate constant K, jump dilution TR-FRET) [min] | koff ([5]; jump dilution, Cy5 covalent probe 150 nM, TR-FRET) [s⁻¹] | half-life ([5]; ln(2)/K, jump dilution TR-FRET) [min] | IC50 ([2]; read-out: TR FRET IC50 1 hr, 1 hr after treatment with compound) [nM] | kinact/KI ([6]; read-out: Kinact/KI (converted)) [M⁻¹ s⁻¹] | Ki [6] [nM] | kinact ([6]; read-out: Kinact (converted)) [s⁻¹] | kinact/KI [6] [nM − 1 * min − 1] | kinact [6] [min^ − 1]
CCN1C(=O)[C@@H](NC(=O)c2cccc(C(F)(F)F)c2)[C@@H](c2ccc(F)cc2)c2c(C(=O)N(C)CC#N)nn(-c3ccccc3)c21 (racemic) [Compound I-5, rac-(4R,5R)—N-(cyanomethyl)-7-ethyl-4-(4-fluorophenyl)-N-methyl-6-oxo-1-phenyl-5-(3-(trifluoromethyl)benzamido)-4,5,6,7-tetrahydro-1H-pyrazolo[3,4-b]pyridine-3-carboxamide] | +++ (MS Emax % adduct formation greater than 80.0 and less than or equal to 100.0) | ≤ 200 | ≤ 200 | 50 to 200 | ++ (Hemoglobin HPLC Ymax greater than 65.0 and less than or equal to 100.0) | ≤ 100 | – | – | – | – | – | – | – | – | – | –
CCN1C(=O)[C@@H](NC(=O)c2cccc(C(F)(F)F)c2)[C@@H](C2CC2)c2c(C(=O)N3C[C@H](NC)C[C@H]3C#N)nn(C3CCOCC3)c21 [Compound I-425, N-((4S,5S)-3-((2S,4R)-2-cyano-4-(methylamino)pyrrolidine-1-carbonyl)-4-cyclopropyl-7-ethyl-6-oxo-1-(tetrahydro-2H-pyran-4-yl)-4,5,6,7-tetrahydro-1H-pyrazolo[3,4-b]pyridin-5-yl)-3-(trifluoromethyl)benzamide] | – | ≤ 200 | – | – | – | ≤ 100 | fast reversible | 76 | 0.000219 | 52.69 | ≤ 200 | 5000 | 21.6 | 0.000115 | – | –
C=C(CN1CCOCC1)C(=O)NC[C@@H](NC(=O)[C@H](Cc1nc2ccc(C(C)C)cc2s1)NC(=O)CC)C1CCCCC1 [DI-1548, reference compound] | – | – | – | – | – | – | – | – | – | – | – | – | 0.355 | – | 0.9971 | 0.3536
